Key:
[1] = target: Non-receptor tyrosine-protein kinase TYK2 (Homo sapiens, UniProt P29597)
[2] = target: Tyrosine-protein kinase JAK1 (Homo sapiens, UniProt P23458)
[3] = target: T1, Tyrosine-protein kinase JAK3 (Homo sapiens, UniProt P52333)
T1 sequence (P52333 whole entry): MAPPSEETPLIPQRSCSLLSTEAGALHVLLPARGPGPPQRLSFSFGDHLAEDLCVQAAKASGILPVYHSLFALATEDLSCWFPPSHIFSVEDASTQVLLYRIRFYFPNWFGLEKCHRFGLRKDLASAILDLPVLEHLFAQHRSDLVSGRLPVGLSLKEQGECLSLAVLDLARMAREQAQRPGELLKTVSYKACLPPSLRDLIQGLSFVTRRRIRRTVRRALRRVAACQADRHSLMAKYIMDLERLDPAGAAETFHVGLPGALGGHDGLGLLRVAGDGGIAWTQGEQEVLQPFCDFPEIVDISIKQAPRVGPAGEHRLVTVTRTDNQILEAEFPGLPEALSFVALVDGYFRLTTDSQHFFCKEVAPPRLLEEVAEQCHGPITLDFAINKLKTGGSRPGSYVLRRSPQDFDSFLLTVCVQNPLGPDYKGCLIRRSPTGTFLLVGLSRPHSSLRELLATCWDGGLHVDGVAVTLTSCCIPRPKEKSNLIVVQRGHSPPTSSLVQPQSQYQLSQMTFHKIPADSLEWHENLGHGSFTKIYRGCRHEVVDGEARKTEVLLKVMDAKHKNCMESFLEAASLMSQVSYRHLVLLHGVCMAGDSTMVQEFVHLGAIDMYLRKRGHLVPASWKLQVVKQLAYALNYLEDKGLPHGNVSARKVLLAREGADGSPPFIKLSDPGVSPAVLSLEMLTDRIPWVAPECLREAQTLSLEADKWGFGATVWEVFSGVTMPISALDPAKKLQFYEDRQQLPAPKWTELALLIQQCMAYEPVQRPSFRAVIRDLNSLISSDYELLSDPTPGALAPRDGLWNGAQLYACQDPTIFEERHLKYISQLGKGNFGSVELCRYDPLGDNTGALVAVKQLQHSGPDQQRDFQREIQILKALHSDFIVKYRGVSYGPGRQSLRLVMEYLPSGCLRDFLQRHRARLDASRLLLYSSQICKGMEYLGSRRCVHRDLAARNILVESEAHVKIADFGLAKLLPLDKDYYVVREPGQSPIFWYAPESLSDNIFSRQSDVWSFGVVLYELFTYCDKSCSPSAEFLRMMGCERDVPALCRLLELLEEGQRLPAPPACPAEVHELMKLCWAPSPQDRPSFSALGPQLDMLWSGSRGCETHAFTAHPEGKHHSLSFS

[4] = target: Tyrosine-protein kinase JAK2 (Homo sapiens, UniProt O60674)
Tyrosine-protein kinase JAK2, sequence (O60674 whole entry): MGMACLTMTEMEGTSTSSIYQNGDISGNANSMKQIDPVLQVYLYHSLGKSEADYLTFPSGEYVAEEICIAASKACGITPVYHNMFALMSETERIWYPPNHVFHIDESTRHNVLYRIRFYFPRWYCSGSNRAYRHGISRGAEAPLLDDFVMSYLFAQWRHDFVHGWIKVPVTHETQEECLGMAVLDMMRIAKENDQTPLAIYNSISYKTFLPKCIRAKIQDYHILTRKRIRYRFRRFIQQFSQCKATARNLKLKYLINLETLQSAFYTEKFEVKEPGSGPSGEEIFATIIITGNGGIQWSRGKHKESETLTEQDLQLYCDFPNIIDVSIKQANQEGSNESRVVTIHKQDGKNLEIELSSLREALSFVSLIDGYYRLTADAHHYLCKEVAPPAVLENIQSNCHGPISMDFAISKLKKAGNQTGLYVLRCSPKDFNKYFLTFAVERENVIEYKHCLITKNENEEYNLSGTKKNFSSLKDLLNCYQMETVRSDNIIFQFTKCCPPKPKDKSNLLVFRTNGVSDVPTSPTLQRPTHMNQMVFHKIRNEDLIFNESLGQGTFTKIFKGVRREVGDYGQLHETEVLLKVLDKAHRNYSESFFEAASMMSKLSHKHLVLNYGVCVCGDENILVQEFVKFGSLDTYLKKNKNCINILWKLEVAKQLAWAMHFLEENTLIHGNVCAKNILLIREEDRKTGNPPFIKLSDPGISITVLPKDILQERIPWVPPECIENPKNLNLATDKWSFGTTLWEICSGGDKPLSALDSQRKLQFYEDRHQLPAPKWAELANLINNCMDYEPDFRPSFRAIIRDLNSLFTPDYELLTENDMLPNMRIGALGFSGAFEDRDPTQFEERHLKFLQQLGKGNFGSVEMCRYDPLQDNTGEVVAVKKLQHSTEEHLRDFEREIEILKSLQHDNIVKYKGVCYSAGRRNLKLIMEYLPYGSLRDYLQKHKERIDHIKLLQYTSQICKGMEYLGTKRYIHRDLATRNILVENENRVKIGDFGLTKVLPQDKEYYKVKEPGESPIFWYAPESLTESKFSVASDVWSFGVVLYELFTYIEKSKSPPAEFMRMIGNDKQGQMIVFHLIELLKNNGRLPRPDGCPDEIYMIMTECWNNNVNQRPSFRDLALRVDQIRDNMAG

Non-receptor tyrosine-protein kinase TYK2, sequence (P29597 whole entry): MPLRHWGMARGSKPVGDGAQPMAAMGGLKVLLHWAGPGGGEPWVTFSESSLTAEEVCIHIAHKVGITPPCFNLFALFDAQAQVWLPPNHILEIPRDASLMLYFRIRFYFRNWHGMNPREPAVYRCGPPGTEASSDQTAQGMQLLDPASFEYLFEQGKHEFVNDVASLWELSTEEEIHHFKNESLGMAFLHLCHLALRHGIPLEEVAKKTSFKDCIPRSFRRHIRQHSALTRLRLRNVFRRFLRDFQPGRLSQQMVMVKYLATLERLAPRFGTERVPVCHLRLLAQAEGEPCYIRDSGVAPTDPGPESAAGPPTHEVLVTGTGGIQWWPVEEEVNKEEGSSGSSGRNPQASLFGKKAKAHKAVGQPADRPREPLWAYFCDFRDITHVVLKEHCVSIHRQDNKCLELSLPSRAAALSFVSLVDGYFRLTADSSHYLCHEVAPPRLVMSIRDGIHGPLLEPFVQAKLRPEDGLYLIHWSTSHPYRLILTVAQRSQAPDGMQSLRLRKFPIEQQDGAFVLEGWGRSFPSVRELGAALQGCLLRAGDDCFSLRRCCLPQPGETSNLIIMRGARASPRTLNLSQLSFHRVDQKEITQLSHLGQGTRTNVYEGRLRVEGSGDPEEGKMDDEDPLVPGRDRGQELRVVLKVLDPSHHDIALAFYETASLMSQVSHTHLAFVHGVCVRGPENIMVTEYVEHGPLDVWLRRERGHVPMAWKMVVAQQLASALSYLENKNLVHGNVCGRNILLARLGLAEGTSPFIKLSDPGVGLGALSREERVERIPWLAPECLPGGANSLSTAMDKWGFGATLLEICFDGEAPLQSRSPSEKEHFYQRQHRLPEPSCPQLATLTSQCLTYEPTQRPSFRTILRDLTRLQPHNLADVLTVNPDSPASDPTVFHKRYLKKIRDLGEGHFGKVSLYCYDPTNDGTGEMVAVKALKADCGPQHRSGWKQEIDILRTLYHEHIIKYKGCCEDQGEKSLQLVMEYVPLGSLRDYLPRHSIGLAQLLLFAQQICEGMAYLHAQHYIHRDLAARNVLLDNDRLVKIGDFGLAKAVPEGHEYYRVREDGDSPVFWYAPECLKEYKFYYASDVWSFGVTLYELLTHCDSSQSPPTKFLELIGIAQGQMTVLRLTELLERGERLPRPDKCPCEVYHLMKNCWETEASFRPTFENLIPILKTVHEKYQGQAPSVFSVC
Tyrosine-protein kinase JAK1, sequence (P23458 whole entry): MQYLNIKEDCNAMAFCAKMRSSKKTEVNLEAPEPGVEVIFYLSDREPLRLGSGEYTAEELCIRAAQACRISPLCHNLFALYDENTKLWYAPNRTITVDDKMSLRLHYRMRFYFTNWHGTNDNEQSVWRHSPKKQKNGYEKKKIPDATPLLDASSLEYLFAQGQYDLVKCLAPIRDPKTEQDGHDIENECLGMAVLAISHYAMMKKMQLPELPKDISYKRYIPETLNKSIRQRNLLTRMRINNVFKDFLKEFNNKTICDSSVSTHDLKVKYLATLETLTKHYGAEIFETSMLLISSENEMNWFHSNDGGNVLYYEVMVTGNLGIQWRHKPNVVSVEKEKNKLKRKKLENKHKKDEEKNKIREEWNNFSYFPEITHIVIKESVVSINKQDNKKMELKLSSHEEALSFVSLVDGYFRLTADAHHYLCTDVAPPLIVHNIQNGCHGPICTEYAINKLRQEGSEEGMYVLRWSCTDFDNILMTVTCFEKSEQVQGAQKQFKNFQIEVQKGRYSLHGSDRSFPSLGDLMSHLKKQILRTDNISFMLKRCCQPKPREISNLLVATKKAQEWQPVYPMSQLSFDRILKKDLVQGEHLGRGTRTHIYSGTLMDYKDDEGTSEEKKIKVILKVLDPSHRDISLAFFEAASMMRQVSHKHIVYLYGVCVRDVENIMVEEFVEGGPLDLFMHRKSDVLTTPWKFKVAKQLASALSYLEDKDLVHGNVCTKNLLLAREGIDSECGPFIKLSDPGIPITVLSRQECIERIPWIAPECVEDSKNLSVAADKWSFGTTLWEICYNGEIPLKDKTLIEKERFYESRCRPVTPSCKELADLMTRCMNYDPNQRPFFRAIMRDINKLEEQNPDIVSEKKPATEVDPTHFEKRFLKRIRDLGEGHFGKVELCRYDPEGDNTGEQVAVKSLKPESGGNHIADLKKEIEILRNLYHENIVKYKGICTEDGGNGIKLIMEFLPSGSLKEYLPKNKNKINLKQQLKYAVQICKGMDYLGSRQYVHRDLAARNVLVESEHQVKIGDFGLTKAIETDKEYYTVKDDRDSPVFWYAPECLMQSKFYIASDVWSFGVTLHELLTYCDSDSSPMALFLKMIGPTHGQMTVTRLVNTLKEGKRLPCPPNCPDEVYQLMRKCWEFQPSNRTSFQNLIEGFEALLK

IC50 [1] [nM] | IC50 [2] [nM] | IC50 [3] [nM] | IC50 [4] [nM] | Compound
> 10000 | – | – | – | CCOC(=O)c1cccc(Nc2nc(N)nn2C(=O)c2c(F)cccc2F)c1
> 10000 | – | – | – | CCOC(=O)c1cccc(Nc2nc(N)n(C(=O)c3ccco3)n2)c1
> 10000 | – | – | – | CCOC(=O)c1cccc(Nc2nc(N)n(C(=O)c3ccc(N(C)C)cc3)n2)c1
70 | 19 | 1250 | 2500 | Nc1nc(Nc2cccc(S(N)(=O)=O)c2)nn1C(=O)c1c(F)cccc1F
300 | 160 | 5000 | > 10000 | Nc1nc(Nc2cccnc2)nn1C(=O)c1c(F)cccc1F
70 | 39 | 2000 | 5000 | CN(C)c1cccc(Nc2nc(N)n(C(=O)c3c(F)cccc3F)n2)c1
> 10000 | – | – | – | CCOC(=O)c1cccc(Nc2nc(N)n(C(=O)c3ccc(C(F)(F)F)cc3)n2)c1
6040 | ≥ 10000 | > 10000 | > 10000 | CCOC(=O)c1cccc(Nc2nc(N)n(C(=O)c3ccccc3F)n2)c1
70 | 80 | 850 | 2500 | CN(C)c1ccc(Nc2nc(N)n(C(=O)c3c(F)cccc3F)n2)cc1

Continued, compound first:

Compound | IC50 [1] [nM] | IC50 [2] [nM] | IC50 [3] [nM] | IC50 [4] [nM]
CCOC(=O)c1cccc(Nc2nc(N)n(C(=O)c3ccccc3)n2)c1 | > 10000 | – | – | –
Nc1nc(Nc2cccc(C(=O)O)c2)nn1C(=O)c1c(F)cccc1F | 690 | 610 | > 10000 | > 10000
CCOC(=O)c1cccc(Nc2nc(N)n(C(=O)c3c(F)cccc3F)n2)c1 | 1720 | 990 | > 10000 | > 10000
Nc1nc(Nc2ccc(C(=O)O)cc2)nn1C(=O)c1c(F)cccc1F | 42 | 45 | 1470 | 2110
Nc1nc(Nc2ccccc2)nn1C(=O)c1c(F)cccc1F | 360 | 230 | 3250 | ≥ 10000
CCOC(=O)c1cccc(Nc2nnc(N)[nH]2)c1 | > 10000 | – | – | –
COC(=O)c1ccc(Nc2nc(N)n(C(=O)c3c(F)cccc3F)n2)cc1 | 760 | 500 | > 10000 | > 10000

Source: ChEMBL document CHEMBL1287810, “Diamino-1,2,4-triazole derivatives are selective inhibitors of TYK2 and JAK1 over JAK2 and JAK3” (Bioorg Med Chem Lett, 2010)
